# Results: patent US7759399B2, “Pharmaceutical compositions” (priority 2002, dated 2010)
# Experiments:
# uninfected 37RC cells = assay: Toxicity to uninfected cells, determined visually by microscopy (TD100)
# in vitro = assay type: cell-based; conditions: 37RC cells, 24 h treatment; read-out: LC50 (50% lethal dose/concentration), Neutral Red
# Method: Cell viability was determined using the Neutral Red assay. 37RC cells were seeded at density of 6×10^4 cells/well in 24-well plates and incubated for 24 h. Confluent 37RC monolayers were treated with the test compounds at different dilutions for 24 h at 37° C. After incubation, the medium was removed and the cells were incubated with RPMI medium containing 40 μg/ml Neutral Red dye (500 μl/well). After 2 h at 37° C., the monolayers were washed with phosphate-buffered saline (PBS) and then with a solution containing 1% CaCl2 and 0.5% formaldehyde. After washing, a solution containing 1% acetic acid/50% ethanol was added to the monolayers (250 μl/well). After 10 min at room temperature, the absorbance was determined with a microplate reader (Victor 1420, Wallac) at 540 nm.
# Sendai virus = Sendai virus replication in 37RC cells (virus yield by HAU titration); assay type: cell-based; conditions: Respirovirus muris, 5 HAU/10^5 cells, virus yield at 24 hours after infection, read-out: ID50 (50% inhibitory dose/concentration), Sendai virus yield
# NF-κB = assay: NF-κB-dependent luciferase reporter gene assay, HeLa κB-transformed cells, TPA stimulated; assay type: cell-based; conditions: Homo sapiens, HeLa, 8 h treatment, TPA 25 ng/ml 2 h after exposure, read-out: NF-κB, IC50 (concentration at which the compound halved the NF-κB activity)
# Method: (§1) Method: HeLa cell clone 13B, stably transfected with a luciferase reporter plasmid controlled by the human hsp70 promoter, and HeLa κB-transformed cells, stably transfected with a luciferase reporter plasmid controlled by a synthetic NF-κB-STM construct, were maintained in DMEM medium supplemented with 10% FBS, L-glutamine (2 mM) and G418 (250 μg/ml) at 37° C. in a 5% CO2 humidified atmosphere.
# (§2) Cells were seeded at a density of 4×10^4 cells/well in 96-well plates. After 18-20 h, the medium was removed and cells were treated for 8 h with the test compounds (100 μl) at the appropriate dilutions in serum-free medium. For the NF-κB-dependent reporter gene assay, cells were stimulated with TPA (25 ng/ml) 2 h after exposure to the compounds.
# (§3) After incubation, the medium was removed and cells were lysed in 10 μl of lysis buffer. The luciferase activity was determined by adding 100 μl of substrate and measuring the release of light using a Victor 1420 microplate reader (Wallac, Finland).
# The fragment Kpn I-BamH I from the pGL3 basic vector containing the luciferase gene (PROMEGA) was inserted in the pcDNA3 vector (INVITROGEN) digested with Bgl II-KpnI. (This digestion removes the CMV-promoter from pcDNA3.) The resulting new vector was digested with Kpn I-Hind III and a promoter containing a ‘5xNF-κB binding sites—TATA box’ sequence was inserted upstream of the luciferase gene. This vector has been named STM.
# To obtain stable HeLa cell lines expressing the luciferase gene under the control of NF-κB, HeLa cells were transfected (using lipofectamine plus GIBCO) with the STM-Pvu I linearized vector, and selected for 20 days with G418 (800 μg/ml). After selection, the resistant HeLa cell pool was controlled (in quadruplicate samples) for luciferase activity after stimulation with TNFα, IL-1 and TPA.
# (§4) The AC200/μM for HSF is the concentration at which the tested compound doubled the HSF activity in this assay. The IC50/μM for NF-κB is the concentration at which the tested compound halved the NF-κB activity in this assay.
# HSF = HSF luciferase reporter assay, HeLa cell clone 13B (human hsp70 promoter); assay type: cell-based; conditions: 8 h, HeLa clone 13B, 8 h treatment, serum-free medium, read-out: HSF, AC200 (concentration at which the compound doubled the HSF activity)
# Method: as §1, §2, §3, §4
# [1] = Alamar Blue cytotoxicity assay; assay type: cell-based; conditions: human
# Method: HeLa cells were plated in 96-well microtiter plates in 100 μl culture medium (4×10^4/well). After 20 hours, the cells were exposed to the test compounds at different dilutions and incubated for the next 8 h at 37° C. in a 5% CO2 humidified atmosphere. After 6 h incubation, the Alamar Blue was added in an amount equal to 10% of the culture volume (10 μl). Two hours after the addition of the Alamar Blue, the fluorescence was measured using a Victor 1420 microplate reader.
# The LC50/μM is the concentration at which the tested compound killed half the cells in this assay.
SMILES,TD100 (dose or concentration at which the compound was 100% toxic to uninfected cells) (uninfected 37RC cells),CC50 at 24 h (in vitro),IC50 (Sendai virus),IC50 (NF-κB),EC (2-fold) (HSF),CC50 at 8 h [1]
CC(C)(C)[Si](C)(C)O[C@H]1CC(=O)C[C@@H]1Sc1ncccn1 [CTM-84],10 µM,6.3 µM,1 µM,28 µM,28 µM,556 µM
CCOC(=O)[C@H](CS[C@H]1CC(=O)C[C@@H]1O[Si](C)(C)C(C)(C)C)NC(=O)OC(C)(C)C [CTM-184],50 µM,25 µM,1 µM,61 µM,24 µM,–
"CC(C)(C)OC(=O)N[C@@H](CS[C@H]1CC(=O)C(C)(C)C1OC(=O)C(C)(C)C)C(=O)O (stereo in doubt) [CTM-218, (2R)-2-tert-butoxycarbonylamino-3-[(1S,2R)-2-(2,2-dimethylpropionyloxy)-3,3-dimethyl-4-oxocyclopentylsulfanyl]-propionic acid]",–,–,–,22 µM,15 µM,–
CC(C)(C)[Si](C)(C)O[C@H]1CC(=O)C[C@@H]1Sc1ccc([N+](=O)[O-])cc1 [CTM-107],10 µM,–,0.3 µM,47 µM,21 µM,169 µM
CC(C)(C)[Si](C)(C)O[C@H]1CC(=O)C[C@@H]1Sc1ccc(F)cc1 [CTM-108],50 µM,29 µM,4 µM,> 100 µM,13 µM,> 800 µM
CC(=O)N[C@@H](CS[C@H]1CC(=O)C[C@@H]1O[Si](C)(C)C(C)(C)C)C(=O)O [CTM-115],>500 µM,228 µM,50 µM,–,–,> 800 µM
CC(C)(C)OC(=O)N[C@@H](CS[C@H]1CC(=O)C[C@@H]1O[Si](C)(C)C(C)(C)C)C(=O)OC(C)(C)C [CTM-183],50 µM,28 µM,1.6 µM,–,–,–
CC(C)(C)OC(=O)N[C@@H](CS[C@H]1CC(=O)C[C@@H]1O[Si](C)(C)C(C)(C)C)C(=O)O [CTM-145],50 µM,14 µM,0.8 µM,–,–,> 800 µM
"CC(C)(C)OC(=O)N[C@@H](CS[C@@H]1CC(=O)C(C)(C)C1OC(=O)C(C)(C)C)C(=O)O (stereo in doubt) [CTM-217, (2R)-2-tert-butoxycarbonylamino-3-[(1R,2S)-2-(2,2-dimethylpropionyloxy)-3,3-dimethyl-4-oxocyclopentylsulfanyl]-propionic acid]",–,–,–,14 µM,10 µM,–
"CC(C)(C)[Si](C)(C)OC1C=CC(=O)C1 (centres unmarked) [CTC-8, 4-tert-butyldimethylsilyloxy-cyclopent-2-en-1-one, reference compound]",100 µM,–,0.5 µM,–,–,–
C[C@@H](CS[C@H]1CC(=O)C[C@@H]1O[Si](C)(C)C(C)(C)C)C(=O)N1CCCC1C(=O)O (some centres unmarked) [CTM-182],100 µM,54 µM,5 µM,> 100 µM,60 µM,–
"COC(=O)C(CSC1CC(=O)CC(O[Si](C)(C)C(C)(C)C)C1)NC(=O)OC(C)(C)C (centres unmarked) [CTM-78, 2-tert-Butoxycarbonylamino-3-[3-(tert-butyl-dimethyl-silanyloxy)-5-oxo-cyclohexylsulfanyl]-propionic acid methyl ester]",18.6 µM,18.6 µM,–,–,45 µM,–
"COC(=O)[C@H](CS[C@H]1CC(=O)CC[C@@H]1O[Si](C)(C)C(C)(C)C)NC(=O)OC(C)(C)C [CTM-68, (R)-2-tert-Butoxycarbonylamino-3-[(1S,2S)-2-(tert-butyl-dimethyl-silanyloxy)-5-oxo-cyclohexylsulfanyl]-propionic acid methyl ester]",9.8 µM,9.8 µM,–,–,98 µM,–
